Data: publication PMC8246065 (The EMBO Journal, 2021)

Assays:
NOD1/2-RIP2 interaction = assay: GFP immunoprecipitation of NOD1/2 and Western blot for RIP2; type: cell-based, human; details: S1P 20 µM with digitonin, 1 h
Protocol: HeLa NOD1 or NOD2 cells were grown overnight and afterward treated with doxycycline overnight to induce NOD1 or NOD2 expression. Cells of one 10‐cm dish were lysed with 500 µl of lysis buffer (25 mM Tris–HCl, pH 7.5, 150 mM NaCl, 1 mM EDTA, 1% NP‐40, and 5% glycerol) supplemented with protease inhibitors (Roche, 05892791001) on ice for 20 min. Lysates were centrifuged at 16,000 × g at 4°C for 10 min, and supernatants were mixed with GFP‐Trap agarose (ChromoTek GmbH, gta‐20) overnight at 4°C. Afterward, agaroses were washed twice with PBS and boiled with sample buffer for SDS–PAGE. For lipid‐coated beads IP, lipid‐coated beads were incubated with supernatants for 2 h at room temperature and then washed with lysis buffer for three times and boiled with sample buffer for SDS–PAGE.

[1] = tested on: HEK293T WT and NOD1/2 KO NF‐κB reporter cells; assay: NF-κB luciferase assay and IL8 qRT-PCR in HEK293T WT and NOD1/2 KO cells; type: cell-based, human; details: cytosolic S1P, HEK293T WT vs NOD1/2 KO
Protocol: HEK293T WT and NOD1/2 KO NF‐κB reporter cells were seeded in 96‐well plates and stimulated with various stressors for 8 h. Then, cells were lysed in lysis buffer (Thermo Fisher Scientific) and luciferase activities were determined with firefly luciferase glow kit (Thermo Fisher Scientific) according to the manufacturer’s instructions. Luciferase activities were normalized to the amount of protein determined with Coomassie Plus kit (Thermo Fisher Scientific). Fold inductions were calculated against normalized luciferase activities of corresponding controls.
Total RNA was isolated with TRIzol reagent, as described by the manufacturer (Invitrogen). RNA (1 μg) was used to generate cDNA via the iScript cDNA Synthesis Kit (Bio‐Rad), and qRT–PCR was performed using Power SYBR Green Master Mix (Applied Biosystems) in a StepOne Plus thermocycler (Applied Biosystems). The average threshold cycle (Ct) of quadruplicate reactions was employed for all subsequent calculations using the ΔΔCt method. Gene expression was normalized to glyceraldehyde‐3‐phosphate dehydrogenase (GAPDH), and fold changes were calculated against corresponding controls. qRT–PCR data were representative of at least three independent experiments, with at least 2 technical replicates per experiment. […]

[2] = tested on: HEK293T NOD1/2 KO cells transfected with NOD1 or NOD2 mutants; assay: IL8 ELISA of HEK293T cells transfected with NOD1/NOD2 mutants; type: cell-based, human
Protocol: To differentiate THP‐1 into macrophage‐like cells, THP‐1 cells were stimulated with 50 ng/ml phorbol 12‐myristate 13‐acetate (Sigma‐Aldrich, P8139) for 24 h and then incubated with fresh medium for another 48 h. […] To induce NOD1 or NOD2 expression, HeLa NOD1 or NOD2 cells were treated with 0.5 µg/ml or 0.25 µg/ml doxycycline for at least 16 h, respectively. All cells have been checked for mycoplasma contamination regularly. Bone marrow‐derived macrophages (BMDMs) were obtained from tibial and femural bones and generated with DMEM containing 20% L929 cell supernatant, 10% FBS, 5% heat‐inactivated horse serum, 1 mM sodium pyruvate, and 2 mM L‐glutamine. For BMDM stimulation experiments, BMDMs were treated with IFN‐γ (20 ng/ml) overnight before stimulation.
The mutagenesis was performed with Q5® site‐directed mutagenesis kit (E0554, NEB) according to the manufacturer's instructions. The primers used in this study were as follows: NOD1 E157A F: 5′‐[…]gcg[…]‐3′, NOD1 E157A R: 5′‐[…]‐3′, NOD1 D161A F: 5′‐[…]gcg[…]‐3′, NOD1 D161A R: 5′‐[…]‐3′, NOD1 D203A F: 5′‐[…]gcg[…]‐3′, D203A R: 5′‐[…]‐3′, L218A F: 5′‐[…]gcg[…]‐3′, L218A R: 5′‐[…]‐3′, R237A F: 5′‐[…]gcg[…]‐3′, R237A R: 5′‐[…]‐3′, H257A F: 5′‐[…]gcg[…]‐3′, H257A R: 5′‐[…]‐3′, E267A F: 5′‐[…]gcg[…]‐3′, E267A R: 5′‐[…]‐3′, H290A F: 5′‐[…]gcg[…]‐3′, H290A R: 5′‐[…]‐3′, E306A F: 5′‐[…]gcg[…]‐3′, E306A R: 5′‐[…]‐3′, K324A F: 5′‐[…]gcg[…]‐3′, K324A R: 5′‐[…]‐3′, K328A F: 5′‐[…]gcg[…]‐3′, K328A R: 5′‐[…]‐3′, R340A F: 5′‐[…]gcg[…]‐3′, R340A R: 5′‐[…]‐3′, R344A F: 5′‐[…]gcg[…]‐3′, R344A R: 5′‐[…]‐3′, R350A F: 5′‐[…]gcg[…]‐3′, R350A R: 5′‐[…]‐3′, D372A F: 5′‐[…]gcg[…]‐3′, D372A R: 5′‐[…]‐3′, R373A F: 5′‐[…]gcg[…]‐3′, R373A R: 5′‐[…]‐3′, R399A F: 5′‐[…]gcg[…]‐3′, R399A R: 5′‐[…]‐3′, D423A F: 5′‐[…]gcg[…]‐3′, D423A R: 5′‐[…]‐3′, R435A F: 5′‐5′‐[…]gcg[…]‐3′, R435A R: 5′‐[…]‐3′, Q484A F: 5′‐[…]gcg[…]‐3′, Q484A R: 5′‐[…]‐3′, L495A F: 5′‐[…]gcg[…]‐3′, L495A R: 5′‐[…]‐3′, E514A F: 5′‐[…]gcg[…]‐3′, E514A R: 5′‐[…]‐3′, H517A F: 5′‐[…]gcg[…]‐3′, H517A R: 5′‐[…]‐3′, L540A F: 5′‐[…]gcg[…]‐3′, L540A R: 5′‐[…]‐3′, F544A F: 5′‐[…]gcg[…]‐3′, and F544A R: 5′‐[…]‐3′.

NLRP3 = molecular target: T1, NLRP3 (Homo sapiens, UniProt Q96P20); assay: MST binding to NLRP3-GFP; details: Fig 6C
T1 construct: Addgene (plasmid only) 73955
T1 sequence (Q96P20 whole entry): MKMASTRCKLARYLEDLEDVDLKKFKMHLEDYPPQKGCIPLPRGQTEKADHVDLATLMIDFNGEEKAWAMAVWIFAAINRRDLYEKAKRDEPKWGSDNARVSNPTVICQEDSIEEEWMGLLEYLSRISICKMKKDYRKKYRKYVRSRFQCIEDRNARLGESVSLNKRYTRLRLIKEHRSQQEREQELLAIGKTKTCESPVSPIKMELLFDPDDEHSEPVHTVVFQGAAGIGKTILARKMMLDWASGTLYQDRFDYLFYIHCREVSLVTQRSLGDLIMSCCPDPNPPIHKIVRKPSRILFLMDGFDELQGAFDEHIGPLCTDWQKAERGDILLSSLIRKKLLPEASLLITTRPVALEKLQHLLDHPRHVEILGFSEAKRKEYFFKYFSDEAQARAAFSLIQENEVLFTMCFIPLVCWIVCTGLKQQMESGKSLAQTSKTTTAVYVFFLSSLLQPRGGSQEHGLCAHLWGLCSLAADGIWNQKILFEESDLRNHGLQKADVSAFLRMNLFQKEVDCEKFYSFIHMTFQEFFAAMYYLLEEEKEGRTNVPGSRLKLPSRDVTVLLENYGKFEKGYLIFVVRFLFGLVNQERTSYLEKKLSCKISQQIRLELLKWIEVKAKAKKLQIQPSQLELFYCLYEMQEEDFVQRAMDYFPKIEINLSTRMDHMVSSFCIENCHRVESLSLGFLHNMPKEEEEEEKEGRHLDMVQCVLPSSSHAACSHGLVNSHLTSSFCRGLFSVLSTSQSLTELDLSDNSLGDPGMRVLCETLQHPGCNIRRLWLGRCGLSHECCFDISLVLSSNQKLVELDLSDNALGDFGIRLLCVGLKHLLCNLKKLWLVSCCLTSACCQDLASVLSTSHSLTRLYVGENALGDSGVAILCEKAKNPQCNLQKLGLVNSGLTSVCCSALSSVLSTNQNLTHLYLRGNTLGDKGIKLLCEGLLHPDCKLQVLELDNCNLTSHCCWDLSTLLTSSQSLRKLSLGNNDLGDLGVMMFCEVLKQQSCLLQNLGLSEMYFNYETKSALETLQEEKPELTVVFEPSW
Protocol: Binding of NOD1, NOD2, GFP, or NLRP3‐GFP to different ligands was measured by microscale thermophoresis (MST). 20 nM GFP or GFP‐tagged proteins in MST buffer (PBS pH 7.4, containing 0.5% NP‐40 and 10 mM DTT) was incubated with different concentrations of ligands. Immediately, samples were loaded into standard glass capillaries (NanoTemper) and thermophoresis analysis was performed on a NanoTemper Monolith NT.115 instrument (40% LED, 80% MST power) at 22°C. A laser on‐time of 30 s and a laser off‐time of 5 s were used. The experiment was performed in triplicates, and the MST curves were fitted using NT analysis software to obtain the K d values.

## CCCCCCCCCCCCC/C=C/[C@@H](O)[C@@H](N)COP(=O)(O)O [S1P, sphingosine‐1‐phosphate]
NOD1/2-RIP2 interaction
  Interaction between NOD1/2 and RIP2: stimulated the interaction between NOD1/2 and RIP2
[1]
  NF-κB activation and IL8 expression: induced NOD1/2‐dependent NF‐κB activation and IL8 expression
[2]; 20 µM with digitonin, 20 h
  IL8 production in cells expressing LRR-deficient NOD1/2 (NOD1/2∆LRR): elevated
  IL8 production in cells expressing NOD1/2 WT: induced
[2]; 20 µM, 48 h, digitonin
  IL8 production / activation in HEK293T cells expressing NOD2 1007fs: increased
[2]; Fig EV5H
  Activation (IL8) of NOD1 K328A or H517A: not
NLRP3
  Direct interaction with NLRP3 by MST: not observed
